In patent US20180022780A1, “STABILIZATION ADRENOMEDULLIN DERIVATIVES AND USE THEREOF” (priority 2014, published 2018):
Bridge positions count the residues as written; N and C are the ends. Square brackets hold non-standard residues; d marks the D form. Ends that are not written are not given here. Peptide text beside a SMILES is read from it. * marks the point of attachment. X1 = CN(C)c1ccc2c(c1)Oc1cc(N(C)C)ccc1C21OC(=O)c2ccc(C(=O)*)cc21; Palmitoyl = CCCCCCCCCCCCCCCC(=O)*; NMeK = CN[C@@H](CCCCN)C(=O)O; Dap = NC[C@H](N)C(=O)O

Columns and labels:
[1] = test system: receptor in rat spleen membranes; details: cited from earlier work
[2] = test system: guinea pig atria; details: cited from earlier work
[3] = only at −80° C. under argon atmosphere; cited from earlier work
[4] = Stability in human blood plasma (TAM-labeled analogues); format: in vitro ADME; details: 10E-5 M, 37° C., two phase decay, N-terminally TAM-labeled analogues, read-out: HalfLife (Slow) (converted)
Text: FIG. 3: Stability of peptides in plasma calculated with GraphPad Prism 5 (GraphPad Software) using two phase decay analysis for the determination of half-life (slow) (Test 1e). N-terminally 6-carboxytetramethylrhodamine-(TAM)-labeled analogues of Control: TAM[G^14]ADM(14-52); Example 18: TAM[K^14(PAM), (Dpr^16, E^21)lac]ADM(14-52); and Example 27: TAM[K^14(PAM), (Dpr^16, E^21)lac, Nα-Me-K^46]ADM(14-52).
The stability of the peptides was investigated using N-terminally 6-carboxytetramethylrhodamine-(TAM)-labeled analogues.
Fluorescently labeled ADM analogues were prepared by using solid phase peptide synthesis (SPPS) as described before (general method for peptide synthesis). Manual coupling of 6-carboxytetramethylrhodamine (TAM) to the N-terminus of the peptides was carried out with a 3-fold molar excess of the fluorescence dye, 2-(1H-benzotriazol-1-yl)-1,1,3,3-tetramethyluronium hexafluorophosphate (HBTU) and N,N-Diisopropylethylamine (DIPEA) in DMF under constant shaking for 24 h the resin as described recently (Bohme D., Beck-Sickinger A. G. ChemMedChem 2015, 10: 804-14). The identity of the peptides was confirmed by mass spectrometry with an MALDI-MS (UltraflexIII, Bruker) and an ESI-MS (HCT, Bruker). The observed masses were in correspondence to the calculated masses.
The peptides were dissolved in 1.5 ml of human blood plasma to a concentration of 10E-5 M and incubated at 37° C. under constant shaking. […] The samples were analyzed by RP-HPLC using a Varian VariTide RPC column (particle size 6 μm; pore size 200 Å; 250×4.6 mm) with linear gradients of 0.1% TFA in water and 0.08% TFA in ACN; fluorescence emission was detected at λ=573 nm. The percentage of intact peptide was determined by peak integration. […] The stability of the peptides was calculated with GraphPad Prism 5 (GraphPad Software) using a two phase exponential decay function for the determination of slow-decay phase half-lives (ln(2)/Kslow; Kslow: rate constant of slow part of exponential decay) (Table 3 and FIG. 3).

[5] = test system: mean arterial blood pressure; details: doses of ≦300 μg/kg body weight; reference WO 2013/064508 A1; cited from earlier work

cyclo [Asp^2, Lys^7]-CGRP
decrease in affinity to the receptor [1]: 50%
biological activity (agonist function) [2]: loss of agonist function

amylin-(1-8) (KCNTATCA; ends and bridges not checked; cysteine pairing not given here; UniProt P10997 34-41, looked up, fragment) [native octapeptide amylin (1-8), literature]
time stable on storage [3]: 6 month

CCCCCCCCCCCCCCCC(=O)NCCCC[C@H](NC(=O)c1ccc2c(c1)C1(OC2=O)c2ccc(N(C)C)cc2Oc2cc(N(C)C)ccc21)C(=O)NCC(=O)N[C@H]1CNC(=O)CC[C@@H](C(=O)N[C@H](C(=O)N[C@H](C(=O)N[C@@H](CCC(N)=O)C(=O)N[C@@H](CCCCN)C(=O)N[C@@H](CC(C)C)C(=O)N[C@@H](C)C(=O)N[C@@H](Cc2c[nH]cn2)C(=O)N[C@@H](CCC(N)=O)C(=O)N[C@H](C(=O)N[C@@H](Cc2ccc(O)cc2)C(=O)N[C@@H](CCC(N)=O)C(=O)N[C@@H](Cc2ccccc2)C(=O)N[C@H](C(=O)N[C@@H](CC(=O)O)C(=O)N[C@@H](CCCCN)C(=O)N[C@@H](CC(=O)O)C(=O)N[C@@H](CCCCN)C(=O)N[C@@H](CC(=O)O)C(=O)N[C@@H](CC(N)=O)C(=O)N[C@H](C(=O)N[C@@H](C)C(=O)N2CCC[C@H]2C(=O)N[C@@H](CCCNC(=N)N)C(=O)N[C@@H](CO)C(=O)N(C)[C@@H](CCCCN)C(=O)N[C@H](C(=O)N[C@@H](CO)C(=O)N2CCC[C@H]2C(=O)N[C@@H](CCC(N)=O)C(=O)NCC(=O)N[C@@H](Cc2ccc(O)cc2)C(N)=O)[C@@H](C)CC)C(C)C)[C@@H](C)O)[C@@H](C)CC)C(C)C)[C@@H](C)O)NC(=O)[C@H]([C@@H](C)O)NC(=O)CNC(=O)[C@H](Cc2ccccc2)NC(=O)[C@H](CCCNC(=N)N)NC1=O [TAM-27, TAM[K^14(PAM), (Dpr^16, E^21)lac, Nα-Me-K^46]ADM(14-52)] (X1-K(Palmitoyl)G[Dap]RFGTETVQKLAHQIYQFTDKDKDNVAPRS[NMeK]ISPQGY-NH2; lactam 3-8)
half-life at 0.0001 M [4]: > 96 h

CCCCCCCCCCCCCCCC(=O)NCCCC[C@H](NC(=O)c1ccc2c(c1)C1(OC2=O)c2ccc(N(C)C)cc2Oc2cc(N(C)C)ccc21)C(=O)NCC(=O)N[C@H]1CNC(=O)CC[C@@H](C(=O)N[C@H](C(=O)N[C@H](C(=O)N[C@@H](CCC(N)=O)C(=O)N[C@@H](CCCCN)C(=O)N[C@@H](CC(C)C)C(=O)N[C@@H](C)C(=O)N[C@@H](Cc2c[nH]cn2)C(=O)N[C@@H](CCC(N)=O)C(=O)N[C@H](C(=O)N[C@@H](Cc2ccc(O)cc2)C(=O)N[C@@H](CCC(N)=O)C(=O)N[C@@H](Cc2ccccc2)C(=O)N[C@H](C(=O)N[C@@H](CC(=O)O)C(=O)N[C@@H](CCCCN)C(=O)N[C@@H](CC(=O)O)C(=O)N[C@@H](CCCCN)C(=O)N[C@@H](CC(=O)O)C(=O)N[C@@H](CC(N)=O)C(=O)N[C@H](C(=O)N[C@@H](C)C(=O)N2CCC[C@H]2C(=O)N[C@@H](CCCNC(=N)N)C(=O)N[C@@H](CO)C(=O)N[C@@H](CCCCN)C(=O)N[C@H](C(=O)N[C@@H](CO)C(=O)N2CCC[C@H]2C(=O)N[C@@H](CCC(N)=O)C(=O)NCC(=O)N[C@@H](Cc2ccc(O)cc2)C(N)=O)[C@@H](C)CC)C(C)C)[C@@H](C)O)[C@@H](C)CC)C(C)C)[C@@H](C)O)NC(=O)[C@H]([C@@H](C)O)NC(=O)CNC(=O)[C@H](Cc2ccccc2)NC(=O)[C@H](CCCNC(=N)N)NC1=O [TAM-18, TAM[K^14(PAM), (Dpr^16, E^21)lac]ADM(14-52)] (X1-K(Palmitoyl)G[Dap]RFGTETVQKLAHQIYQFTDKDKDNVAPRSKISPQGY-NH2; lactam 3-8)
half-life at 0.0001 M [4]: > 96 h

CC[C@H](C)[C@H](NC(=O)[C@H](CCC(N)=O)NC(=O)[C@H](Cc1c[nH]cn1)NC(=O)[C@H](C)NC(=O)[C@H](CC(C)C)NC(=O)[C@H](CCCCN)NC(=O)[C@H](CCC(N)=O)NC(=O)[C@@H](NC(=O)[C@@H](NC(=O)[C@@H]1CSSC[C@H](NC(=O)CNC(=O)CNC(=O)c2ccc3c(c2)C2(OC3=O)c3ccc(N(C)C)cc3Oc3cc(N(C)C)ccc32)C(=O)N[C@@H](CCCNC(=N)N)C(=O)N[C@@H](Cc2ccccc2)C(=O)NCC(=O)N[C@@H]([C@@H](C)O)C(=O)N1)[C@@H](C)O)C(C)C)C(=O)N[C@@H](Cc1ccc(O)cc1)C(=O)N[C@@H](CCC(N)=O)C(=O)N[C@@H](Cc1ccccc1)C(=O)N[C@H](C(=O)N[C@@H](CC(=O)O)C(=O)N[C@@H](CCCCN)C(=O)N[C@@H](CC(=O)O)C(=O)N[C@@H](CCCCN)C(=O)N[C@@H](CC(=O)O)C(=O)N[C@@H](CC(N)=O)C(=O)N[C@H](C(=O)N[C@@H](C)C(=O)N1CCC[C@H]1C(=O)N[C@@H](CCCNC(=N)N)C(=O)N[C@@H](CO)C(=O)N[C@@H](CCCCN)C(=O)N[C@H](C(=O)N[C@@H](CO)C(=O)N1CCC[C@H]1C(=O)N[C@@H](CCC(N)=O)C(=O)NCC(=O)N[C@@H](Cc1ccc(O)cc1)C(N)=O)[C@@H](C)CC)C(C)C)[C@@H](C)O [TAM-control, TAM[G^14]ADM(14-52), reference compound]
half-life at 0.0001 M [4]: 9 h

adrenomedullin (human) [wt ADM]
duration of blood pressure reduction [5]: ≤ 4 h
